Data from US20240132431A1, “METHOD FOR ALKYLATING ACIDIC FUNCTIONAL GROUP” (Chugai Seiyaku Kabushiki Kaisha, priority 2021, published 2024).

Molecular target: T1, Bcl-2 protein (Recombinant Human Bcl-2 Protein) (Homo sapiens, UniProt P10415)
T1 construct: purchased Novus NBP2-34889
Test: Binding evaluation of mixture library compounds to Bcl-2 using AS-MS (affinity selection mass spectrometry)
Details: ASMS Ratio(%)=(A−C)/B×100; for ASMS ratio (%) n = 1: replicate n = 1; for ASMS ratio (%) n = 2: replicate n = 2
Method: For one well of MICROPLATE, 96-well, PP, V-BOTTOM (Greiner bio-one, 651201), DMSO solutions of 12 mixtures (prepared to approximately 0.58 mM based on calculations from the average molecular weight of each mixture), in each of which 100 compounds are mixed, were each dispensed, and dispensed into a total of 12 wells, where the 12 mixtures are mixAI-B4J-01, mixAI-B1M-01, mixAI-B1K-01, mixAI-B10-01, mixAI-B1A-01, mixAI-B3A-01, mixAI-B21-01, mixAI-B2L-01, mixAI-B2N-01, mixAI-B2A-01, mixAI-B2Q-01, and mixAI-B2R-01 listed in [Table AI-03-B4J-01], [Table AI-03-B1M-01], [Table AI-03-B1K-01], [Table AI-03-B10-01], [Table AI-03-B1A-01], [Table AI-03-B3A-01], [Table AI-03-B2I-01], [Table AI-03-B2L-01], [Table AI-03-B2N-01], [Table AI-03-B2A-01], [Table AI-03-B2Q-01], and [AI-03-B2R-01] shown in Example 6. Using the LABCYTE ECHO® 555 Acoustic Dispensing System (BECKMAN COULTER), 70 nL was collected from each of the 12 wells into one arbitrary well to prepare a sample solution with 1200 compounds in the mixed state (the presence of 1152 compounds had already been identified when prepared in Example 6-5-3). (In the present specification, the mixture collected in this one well is referred to as one library.) Furthermore, a Bcl-2 protein (Novus, NBP2-34889, Recombinant Human Bcl-2 Protein, Lot E60145051) (19.2 μL) that had been prepared in advance to be 20.9 μM using a Tris-HCl buffer (25 mM Tris-HCl pH 7.4, 150 mM NaCl, 0.025% Tween-20, 1 mM DTT) was added to the well in which 1200 compounds (the presence of 1152 compounds had already been identified when prepared in Example 6-5-3) were dispensed (final compound concentration […], final Bcl-2 concentration 20 μM), and the mixture was incubated in the dark at 23° C. for 1 hour. Next, using the 96-well MacroSpin column, P-2 Material (Harvard, 74-5655) that had been swollen, conditioning of the 96-well MacroSpin column was performed three times by centrifugation with 200 μL of an assay buffer (25 mM Tris-HCl pH 7.4, 150 mM NaCl, 0.025% Tween-20, 1 mM DTT), 2000 XG, 4° C., 2 min. Subsequently, 20 μL of the sample after incubation was added to the 96-well MacroSpin column, P-2 Material, that had been conditioned, and SEC treatment was performed by centrifugation at 2000×G for 2 minutes. To the liquid passed from the SEC, 32 μL of a 1:1 mixed solution of acetonitrile and methanol (LC/MS grade, Fujifilm Wako Pure Chemical Corporation) was added, the mixture was centrifuged at 1800×G, 4° C., 5 min, and the supernatant was used as analysis sample ASMS (A), while a sample that had been prepared by the same operations at 1200 compounds/well and to which only the Tris-HCl buffer had been added without the Bcl-2 protein was incubated under the same conditions, no 96-well MacroSpin column treatment was performed, the same organic solvent was added, and the supernatant solution obtained by centrifugation was used as STD (B). Next, a sample that had been prepared by the same operations at 1200 compounds/well and to which only the Tris-HCl buffer had been added without the Bcl-2 protein was incubated under the same conditions, the same 96-well MacroSpin column treatment was performed, the same organic solvent was added, and the supernatant solution obtained by centrifugation was used as BK (C), and measured by reversed phase LC/MS.
Then, analysis of the 1200 compounds was carried out for samples A, B, and C with TraceFinder 5.1 (Thermo Fisher Scientific) and CHANCE Software (in-house), and the ASMS Ratio (%) was calculated according to the following calculation formula.
Calculation formula: ASMS Ratio(%)=(A−C)/B×100

[1] = AS-MS, mixture of 1200 compounds, Bcl-2
[2] = AS-MS on the mixture of 1200 library compounds

T1 sequence (P10415 whole entry): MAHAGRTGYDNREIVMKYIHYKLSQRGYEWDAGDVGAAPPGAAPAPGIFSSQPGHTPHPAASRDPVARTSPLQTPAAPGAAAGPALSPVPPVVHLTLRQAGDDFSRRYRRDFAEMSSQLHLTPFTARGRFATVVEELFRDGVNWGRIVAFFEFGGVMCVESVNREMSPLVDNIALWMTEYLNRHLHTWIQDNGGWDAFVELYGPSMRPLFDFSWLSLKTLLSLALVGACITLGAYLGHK

Substance	ASMS ratio (%) n = 1 [1] [%]	ASMS ratio (%) n = 2 [1] [%]	ASMS ratio (%) n = 1 [2] [%]	ASMS ratio (%) n = 2 [2] [%]
4-[4-[1-[4-(3-Ethoxyphenyl)-2-fluorophenyl]ethyl]piperazin-1-yl]-N-propylbenzamide [B1M005-01]	0.0	1.4		
4-[4-[1-[4-(3-Ethoxyphenyl)phenyl]ethyl]piperazin-1-yl]-N-propylbenzamide [B1M003-01]	−1.9	2.0		
4-[4-[1-[4-(5-Ethoxypyridin-3-yl)-2-fluorophenyl]ethyl]piperazin-1-yl]-N-propylbenzamide [B1M006-01]	0.0	0.0		
4-[4-[1-[4-(5-Ethoxypyridin-3-yl)phenyl]ethyl]piperazin-1-yl]-N-propylbenzamide [B1M004-01]	0.0	0.0		
4-[4-[2-[2-(3-Ethoxyphenyl)ethynyl]benzoyl]piperazin-1-yl]-N-propylbenzamide [B1M097-01]			1.1	0.3
4-[4-[2-[2-(5-Ethoxypyridin-3-yl)ethynyl]benzoyl]piperazin-1-yl]-N-propylbenzamide [B1M098-01]			0.9	0.3
4-[4-[3-(3-Ethoxyphenyl)-5-(trifluoromethyl)benzoyl]piperazin-1-yl]-N-propylbenzamide [B1M092-01]				0.0
4-[4-[3-(5-Ethoxypyridin-3-yl)-5-(trifluoromethyl)benzoyl]piperazin-1-yl]-N-propylbenzamide [B1M008-01]		0.0		
4-[4-[3-[2-(3-Ethoxyphenyl)ethynyl]-5-(trifluoromethyl)benzoyl]piperazin-1-yl]-N-propylbenzamide [B1M014-01]	4.1	0.4		
4-[4-[3-[2-(3-Ethoxyphenyl)phenyl]propanoyl]piperazin-1-yl]-N-propylbenzamide [B1M068-01]	1.1	0.0		
4-[4-[3-[2-(5-Ethoxypyridin-3-yl)ethynyl]-5-(trifluoromethyl)benzoyl]piperazin-1-yl]-N-propylbenzamide [B1M019-01]	1.5	0.0		
4-[4-[3-[2-(5-Ethoxypyridin-3-yl)phenyl]propanoyl]piperazin-1-yl]-N-propylbenzamide [B1M078-01]	0.0	0.0		
4-[4-[3-[4-(3-Ethoxyphenyl)pyrazol-1-yl]-5-(trifluoromethyl)benzoyl]piperazin-1-yl]-N-propylbenzamide [B1M025-01]	3.6	−1.2		
4-[4-[3-[4-(5-Ethoxypyridin-3-yl)pyrazol-1-yl]-5-(trifluoromethyl)benzoyl]piperazin-1-yl]-N-propylbenzamide [B1M031-01]	0.0	−2.4		
4-[4-[3-tert-Butyl-5-(3-ethoxyphenyl)benzoyl]piperazin-1-yl]-N-propylbenzamide [B1M062-01]	1.6	−1.7		
4-[4-[3-tert-Butyl-5-(5-ethoxypyridin-3-yl)benzoyl]piperazin-1-yl]-N-propylbenzamide [B1M063-01]	0.4	−1.1		
4-[4-[4-(3-Ethoxyphenyl)-3-fluorobenzoyl]piperazin-1-yl]-N-propylbenzamide [B1M090-01]			0.0	0.0
4-[4-[4-(3-Ethoxyphenyl)-3-methylbenzoyl]piperazin-1-yl]-N-propylbenzamide [B1M038-01]	0.0	1.7		
4-[4-[4-(3-Ethoxyphenyl)naphthalene-1-carbonyl]piperazin-1-yl]-N-propylbenzamide [B1M073-01]	0.4	−0.5		
4-[4-[4-(3-Ethoxyphenyl)thiophene-2-carbonyl]piperazin-1-yl]-N-propylbenzamide [B1M083-01]			0.0	−0.3
4-[4-[4-(5-Ethoxypyridin-3-yl)-3-fluorobenzoyl]piperazin-1-yl]-N-propylbenzamide [B1M091-01]			0.0	0.0
4-[4-[4-(5-Ethoxypyridin-3-yl)-3-methylbenzoyl]piperazin-1-yl]-N-propylbenzamide [B1M039-01]	2.3	−0.6		
4-[4-[4-(5-Ethoxypyridin-3-yl)naphthalene-1-carbonyl]piperazin-1-yl]-N-propylbenzamide [B1M074-01]	−1.6	0.9		
4-[4-[4-(5-Ethoxypyridin-3-yl)thiophene-2-carbonyl]piperazin-1-yl]-N-propylbenzamide [B1M084-01]			0.0	0.0
4-[4-[5-[2-(3-Ethoxyphenyl)ethynyl]pyridine-3-carbonyl]piperazin-1-yl]-N-propylbenzamide [B1M002-01]	−0.7	−1.5		
4-[4-[5-[2-(5-Ethoxypyridin-3-yl)ethynyl]pyridine-3-carbonyl]piperazin-1-yl]-N-propylbenzamide [B1M057-01]	−0.7	1.4		
4-[4-[[2-(3-Ethoxyphenyl)phenyl]methyl]piperazin-1-yl]-N-propylbenzamide [B1M040-01]	−0.3	0.0		
4-[4-[[2-(5-Ethoxypyridin-3-yl)phenyl]methyl]piperazin-1-yl]-N-propylbenzamide [B1M041-01]	0.7	−3.5		
4-[4-[[3-(3-Ethoxyphenyl)-5-(trifluoromethoxy)phenyl]methyl]piperazin-1-yl]-N-propylbenzamide [B1M032-01]	0.3	0.3		
4-[4-[[3-(3-Ethoxyphenyl)-5-(trifluoromethyl)phenyl]methyl]piperazin-1-yl]-N-propylbenzamide [B1M026-01]	0.9	0.9		
